Assay results published in PubChem BioAssay (NCI).
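GI50: concentration for 50% inhibition of growth. TGI: total growth inhibition.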

Experiments:
Test in all cases: DTP human tumour cell line panel, 384-well format
A549 NSCLC = system: A549 NSCLC
ACHN renal = system: ACHN renal
MALME-3M melanoma = system: MALME-3M melanoma
NCI-H23 lung = system: NCI-H23 lung
OVCAR-3 ovarian = system: OVCAR-3 ovarian
PC-3 prostate = system: PC-3 prostate
RPMI-8226 leukemia = system: RPMI-8226 leukemia
SF-268 CNS = system: SF-268 CNS
SK-OV-3 ovarian = system: SK-OV-3 ovarian
SN12C renal = system: SN12C renal
SNB-19 CNS = system: SNB-19 CNS
SW-620 colon = system: SW-620 colon
U251 glioblastoma = system: U251 glioblastoma

## Cc1cc(C)c(CNC(=O)c2cc(-c3ccc(CN4CCOCC4)cc3)cc3c2cnn3C2CCCC2)c(=O)[nH]1
A549 NSCLC
  GI50: 6.65 µM
  TGI: 17.7 µM
ACHN renal
  GI50: 10.3 µM
  TGI: 23.9 µM
MALME-3M melanoma
  GI50: 5.49 µM
  TGI: 15.9 µM
NCI-H23 lung
  GI50: 14.3 µM
  TGI: 27.5 µM
OVCAR-3 ovarian
  GI50: 4.83 µM
  TGI: 17.5 µM
PC-3 prostate
  GI50: 8.37 µM
  TGI: 20.8 µM
RPMI-8226 leukemia
  GI50: 2.11 µM
  TGI: 6.54 µM
SF-268 CNS
  GI50: 6.37 µM
  TGI: 13.6 µM
SK-OV-3 ovarian
  GI50: 13.4 µM
  TGI: 26.4 µM
SN12C renal
  GI50: 12.3 µM
  TGI: 24.9 µM
SNB-19 CNS
  GI50: 9.84 µM
  TGI: 23.4 µM
SW-620 colon
  GI50: 13.2 µM
  TGI: 26.3 µM
U251 glioblastoma
  GI50: 7.69 µM
  TGI: 20.2 µM
